The structures appear in SMILES notation. Several values for one entry are separate records, joined by “and”; a condition that tells them apart may be missing. Equal values may be shown once. Residues, ends and D or L forms follow the SMILES beside them. Some results are limits rather than exact numbers.

For assay [1], the system named is tested fungal strains. The experiment in a line: micro-dilution and transplant on solid medium, summary over yeast panel. The assay is classed as cell-based. The note with it: over Candida albicans ATCC 10231, Candida glabrata ATCC 2001 and Malassetia pachydermatis ATCC 14522. The protocol:
Candida albicans ATCC 10231, Candida glabrata ATCC 2001 and Malassetia pachydermatis ATCC 14522 were cultivated in Czapek-Dox broth (DIFCO) medium for 48-72 hours. On the day of the test the fungal culture was centrifuged at 1700G for 15 minutes and the pellet resuspended in phosphate buffer, then put in agitation on an electric vortex to disrupt fungal cell aggregations. The suspension was diluted to get a final optical density of 0,5 of the McFarland scale (about 1-5x10^6 cell/ml) (Branda J.A., Krantz A. Effect of yeast on automated cell counting. Am J Clin Pathol., 2006:126, 248-254.).
Peptides ability to inhibit the fungal growth in liquid cultures was tested. 50 µl of each peptides solutions of about 0.2-50 µM were added in microtiter plates with 96 wells with U-shaped bottom, with liquid culture medium and one of these fungi: Candida albicans ATCC 10231, Candida glabrata ATCC 2001 and Malassetia pachydermatis ATCC 14522. After 2 hours of incubation at 37°C, fungal suspensions were plated on solid culture medium, agar Sabouraud. Fungal cultures were cultivated without peptides as growth control.
the fungal suspension and peptides at differing concentrations were in contact for about 2 hours at 37°C. […] After an incubation time of 24 hours at 37°C, the fungal colonies (cfu) were counted.
(In general: Broth dilution looks for growth in wells or tubes with falling amounts of substance.)

For assay [2], the system named is E. coli ATCC 25922. The experiment in a line: antimicrobial activity in presence of Muller-Hinton 20%. The following applies: 20% of Muller-Hinton medium. The assay is classed as cell-based. The method, then:
(§1) This example verifies the peptides antimicrobial activity in presence of a concentration of 20% of Muller-Hinton liquid medium, characterized by the presence of salts with high concentration.
(§2) Peptides were tested in the ability to inhibit bacterial growth in liquid medium. 50 µl of peptides at a concentration between 3.1 µg/ml (NCP-0=1.4µM; NCP-2=[…]; NCP-3=1.3 µM) and 100 µg/ml (NCP-0=46.3 µM; NCP-2=43.2 µM; NCP-3=41.6 µM) were added in microtiter plate wells with phosphate buffer 10 mM with Muller-Hinton liquid medium al the final concentration of 20% and one of these bacteria: E. coli ATCC 25922, Pseudomonas aeruginosa ATCC 27853, Staphylococcus aureus ATCC 25923 and Staphylococcus aureus methicillin resistant ATCC 43300. After 2 hours incubation at 37°C, bacteria were transplanted on solid culture medium. Bacterial cultures were cultivated without peptides as growth control.

The test system of assay [3] is Staphylococcus aureus ATCC 25923. Described as above. The assay is classed as cell-based. The note with it: 20% of Muller-Hinton medium. The protocol: as §1, §2
Assay [4] concerns Pseudomonas aeruginosa ATCC 27853. The assay is described as above. The assay is classed as cell-based. The following applies: 20% of Muller-Hinton medium. The protocol: as §1, §2
The test system of assay [5] is MRSA ATCC 43300. As to the kind of experiment: antimicrobial activity in presence of NaCl. The assay is classed as cell-based, Staphylococcus aureus. The method, then: Peptides were tested in the ability to inhibit bacterial growth in liquid medium. 50 µl of peptides at a concentration […] E. coli ATCC 25922, Pseudomonas aeruginosa ATCC 27853 and Staphylococcus aureus methicillin resistant ATCC 43300. After 2 hours incubation at 37°C, bacteria were plated on solid culture medium. Bacterial cultures were cultivated without peptides as growth control.
The bacterial suspension and peptides at differing concentrations were put in contact for about 2 hours at 37°C. After this incubation, 20 µl from every well of the plate were transplanted on solid culture medium, McConkey agar for Gram-negative and Columbia agar with 5% of bovine erythrocytes for Gram-positive bacteria. The inoculum was evenly distributed on the agar medium using a single use sterile handle. After an incubation time of 24 hours at 37°C, the bacterial colonies (cfu) were counted.

In assay [6] the test system is MRSA ATCC 43400. As to the kind of experiment: micro-dilution in liquid medium and transplant on solid medium, Gram-positive bacteria. The assay is classed as cell-based, Staphylococcus aureus. The following applies: 2 hours at 37°C, transplant on agar. The method, then: For each bacterial strain 3-5 morphologically similar colonies from fresh cultures were taken and inoculated in Brain Heart Infusion broth, then incubated at 37°C in agitation at 225 r.p.m. for about 3-4 hours. Then the bacterial suspension was centrifuged at 1000 G for 20 minutes and the pellet resuspended in phosphate buffer pH 7, 10 mM. The turbidity of the bacterial suspension was measured using a spectrophotometer with absorbance of 600 nm; the range 0,08-0,13 equates to about 10^8 cfu/ml. The bacterial suspension was diluted 1:100 in phosphate buffer 10mM to obtain a bacterial concentration of about 10^6 cfu/ml. Within 30 minutes 50 µl of the suspension 10^6 cfu/ml were inoculated in each well of the microtiter plate, to obtain a bacterial concentration of about 5x10^5 cfu/ml.
The peptides ability to inhibit the bacterial growth in liquid cultures was tested. 50 µl of each peptides solutions of about 0.2-50 µM were added in microtiter plates with 96 wells with liquid culture medium and one of these bacterial strains: Staphylococcus aureus ATCC 25923, MRSA ATCC 43300, Streptococcus agalactiae ATCC 13813 and Enterococcus hirae ATCC 10541. […]
The bacterial suspension and differing peptides concentrations were put in contact for about 2 hours at 37°C. […] After an incubation time of 24 hours at 37°C, the bacterial colonies (cfu) were counted.

In the case of `CC[C@H](C)[C@H](NC(=O)[C@H](CCCCN)NC(=O)[C@H](Cc1ccc(O)cc1)NC(=O)[C@H](CS)NC(=O)[C@H](CC(C)C)NC(=O)[C@H](CC(N)=O)NC(=O)[C@H](CCCCN)NC(=O)CNC(=O)[C@H](C)NC(=O)[C@@H]1CCCN1C(=O)[C@H](CS)NC(=O)[C@@H](NC(=O)[C@H](CCCCN)NC(=O)[C@H](CO)NC(=O)[C@H](C)NC(=O)[C@@H](NC(=O)[C@@H]1CCCN1C(=O)[C@@H](NC(=O)[C@H](CC(C)C)NC(=O)[C@@H](N)CCCCN)[C@@H](C)CC)[C@@H](C)CC)[C@@H](C)O)C(=O)O` [NCP-0, K LIPIA SKT CPA GKN LCY KI] (H-KLIPIASKTCPAGKNLCYKI-OH; N-terminus and C-terminus assumed), the LD99 in assay [1] was > 150 µg/ml and > 69.2 µM; in assay [6] it was > 200 µg/ml and > 92.6 µM. Besides, the “Antimicrobial activity (% to control)” value in assay [2] (peptide 3.1 µg/ml), in assay [2] (peptide 6.3 µg/ml), in assay [2] (peptide 12.5 µg/ml), in assay [2] (peptide 100 µg/ml), in assay [3] (peptide 3.1 µg/ml) and in assay [3] (peptide 6.3 µg/ml) was 0% each time. For the same compound, the “Antimicrobial activity (% to control)” value in assay [3] (peptide 12.5 µg/ml), in assay [3] (peptide 100 µg/ml), in assay [4] (peptide 3.1 µg/ml), in assay [4] (peptide 6.3 µg/ml), in assay [4] (peptide 12.5 µg/ml) and in assay [4] (peptide 100 µg/ml) was 0% throughout. Further, the “Antimicrobial activity (% to control)” value was determined as 0% in assay [5] (10 mM NaCl, peptide 12.5 µg/ml); 2% in assay [5] (10 mM NaCl, peptide 100 µg/ml); 0% in assay [5] (125 mM NaCl, peptide 12.5 µg/ml); 0% in assay [5] (125 mM NaCl, peptide 100 µg/ml); 0% in assay [5] (250 mM NaCl, peptide 12.5 µg/ml); 0% in assay [5] (250 mM NaCl, peptide 100 µg/ml). For the same compound, in assay [6], the LD90 is > 100 µg/ml and > 46.3 µM.

These data come from patent EP3298025B1, “NEW AMINO ACID SEQUENCES WITH MI[…] DERIVED FROM NAJA ATRA CARDIOTOXIN 1 (CTX-1)” (Università degli Studi di Parma, priority 2015, dated 2016).
